From US12037344B2, “NLRP3 modulators” (INNATE TUMOR IMMUNITY, INC., priority 2018, dated 2024)
Like-named read-outs stand apart in the source and are kept apart here.

Experiments:
TLR8 = biological target: T1, TLR8 (Homo sapiens, UniProt Q9NR97); test: In vitro human TLR8 binding reporter assay (HEK-Blue, NF-kB/AP1-inducible SEAP); format: cell-based; details: read-out: TLR8 Agonist EC50
T1 construct: human HEK-Blue cells co-expressing a TLR7 or TLR8 gene
T1 sequence (Q9NR97 27-1041): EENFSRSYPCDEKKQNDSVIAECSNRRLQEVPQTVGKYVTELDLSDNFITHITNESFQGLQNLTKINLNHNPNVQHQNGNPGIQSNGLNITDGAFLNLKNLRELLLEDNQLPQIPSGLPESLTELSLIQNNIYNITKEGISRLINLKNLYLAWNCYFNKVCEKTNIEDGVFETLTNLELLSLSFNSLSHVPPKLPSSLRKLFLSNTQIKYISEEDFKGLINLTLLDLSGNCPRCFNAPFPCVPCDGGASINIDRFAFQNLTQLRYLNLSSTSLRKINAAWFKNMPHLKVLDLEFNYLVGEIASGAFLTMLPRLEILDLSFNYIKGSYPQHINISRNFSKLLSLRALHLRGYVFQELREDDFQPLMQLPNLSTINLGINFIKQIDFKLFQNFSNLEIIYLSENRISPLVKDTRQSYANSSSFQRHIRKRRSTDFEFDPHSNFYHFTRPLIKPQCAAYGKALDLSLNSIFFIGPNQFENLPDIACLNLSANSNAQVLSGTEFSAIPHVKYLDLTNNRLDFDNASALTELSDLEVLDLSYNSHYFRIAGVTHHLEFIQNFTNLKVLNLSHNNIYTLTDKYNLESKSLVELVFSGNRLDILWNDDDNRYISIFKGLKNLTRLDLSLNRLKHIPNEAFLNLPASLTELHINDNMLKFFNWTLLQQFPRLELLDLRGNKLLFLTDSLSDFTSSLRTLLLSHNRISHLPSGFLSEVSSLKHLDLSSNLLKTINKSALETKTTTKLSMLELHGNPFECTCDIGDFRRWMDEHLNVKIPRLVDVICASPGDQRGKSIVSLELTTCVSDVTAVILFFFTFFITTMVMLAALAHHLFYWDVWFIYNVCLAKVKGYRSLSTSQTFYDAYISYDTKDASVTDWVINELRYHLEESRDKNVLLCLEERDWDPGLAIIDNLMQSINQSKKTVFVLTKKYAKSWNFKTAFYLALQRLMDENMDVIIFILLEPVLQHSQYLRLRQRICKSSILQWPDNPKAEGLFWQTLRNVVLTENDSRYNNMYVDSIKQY
In short: (§1)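 HEK-Blue cells expressing human TLR7 or TLR8 with NF-kB/AP1-inducible SEAP reporter, plated 24 h, then compound-treated 18 h at 37° C, 5% CO2. EC50 normalized to 100% Ymax set by 50 μM reference standard.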

THP-1 cells = test: Measurement of IL-1β production, hTRF protocol (second alternative procedure), THP-1 cells; format: cell-based, human
In short: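 Compounds, dilution series starting at a final 10 μM, were incubated 2 hours at 37° C with PMA-differentiated THP-1 cells (50 ng/ml overnight; 50,000 cells/well, 2% FBS RPMI). Released IL-1β quantified in supernatant by hTRF kit with 1:40 antibody dilution, 4° C overnight, 665/615 nm ratio.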

TLR7 = biological target: T2, TLR7 (Homo sapiens, UniProt Q9NYK1); test: In vitro human TLR7 binding reporter assay (HEK-Blue, NF-kB/AP1-inducible SEAP); format: cell-based; details: read-out: TLR7 Agonist EC50
T2 construct: human HEK-Blue cells co-expressing a TLR7 or TLR8 gene
T2 sequence (Q9NYK1 27-1049): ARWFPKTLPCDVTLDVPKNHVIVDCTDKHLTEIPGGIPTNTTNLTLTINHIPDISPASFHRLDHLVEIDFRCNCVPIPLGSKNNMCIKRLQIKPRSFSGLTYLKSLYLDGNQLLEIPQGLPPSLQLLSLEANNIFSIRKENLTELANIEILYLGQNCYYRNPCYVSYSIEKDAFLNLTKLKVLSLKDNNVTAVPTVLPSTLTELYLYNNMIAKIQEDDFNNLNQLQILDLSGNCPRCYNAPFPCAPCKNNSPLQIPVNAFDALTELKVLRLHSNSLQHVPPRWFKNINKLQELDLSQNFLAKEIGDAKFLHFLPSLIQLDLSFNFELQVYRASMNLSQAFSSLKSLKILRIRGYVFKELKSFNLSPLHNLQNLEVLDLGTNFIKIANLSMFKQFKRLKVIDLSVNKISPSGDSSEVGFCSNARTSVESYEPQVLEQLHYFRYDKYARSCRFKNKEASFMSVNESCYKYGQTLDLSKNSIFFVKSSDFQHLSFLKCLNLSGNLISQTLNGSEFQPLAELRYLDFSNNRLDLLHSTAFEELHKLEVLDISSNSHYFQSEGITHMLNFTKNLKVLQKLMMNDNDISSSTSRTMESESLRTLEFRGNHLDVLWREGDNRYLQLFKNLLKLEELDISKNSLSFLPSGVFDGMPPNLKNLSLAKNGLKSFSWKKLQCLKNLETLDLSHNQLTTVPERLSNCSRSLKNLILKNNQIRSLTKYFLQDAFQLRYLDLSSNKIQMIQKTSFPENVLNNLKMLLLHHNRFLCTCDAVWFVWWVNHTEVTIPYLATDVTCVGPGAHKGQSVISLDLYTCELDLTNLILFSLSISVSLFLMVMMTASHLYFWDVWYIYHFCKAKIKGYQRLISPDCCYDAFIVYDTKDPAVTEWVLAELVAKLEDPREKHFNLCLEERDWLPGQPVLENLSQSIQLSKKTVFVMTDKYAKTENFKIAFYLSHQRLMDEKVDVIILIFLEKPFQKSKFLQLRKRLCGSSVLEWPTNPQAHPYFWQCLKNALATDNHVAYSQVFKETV
In short: as §1

[1] = Homo sapiens, THP-1, IL-1β production, human, read-out: NLRP3 hILIB EC50
[2] = IL-1β production, human, read-out: NLRP3 hILIB EC50
[3] = Homo sapiens, THP-1, IL-1β production, human cells, read-out: NLRP3 hILIB EC50

Row | SMILES | EC50 (TLR8; activity range class) | EC50 (THP-1 cells; [1]) | EC50 (TLR7; activity range class) | EC50 (THP-1 cells; [2]) | EC50 (TLR8; activity range) | EC50 (THP-1 cells; [3]) | EC50 (TLR7; activity range) | EC50 (THP-1 cells; Homo sapiens, THP-1, read-out: NLRP3 hILIB EC50)
1 | Nc1nc2cc(-c3cc[nH]n3)ccc2c2cn(CCNC(=O)c3ccc(OCc4ccccc4)cn3)nc12 [Example 58] | 1 to 20 µM | 300 nM | > 100 µM | – | – | – | – | –
2 | Nc1nc2cc(-c3cc[nH]n3)ccc2c2cn(CCNC(=O)c3ccccc3F)nc12 [Example 74] | 20 to 100 µM | 250 nM | > 100 µM | – | – | – | – | –
3 | COC(C)Cn1cc2c(N)nc3cc(-c4cc[nH]n4)ccc3c2n1 (single isomer, unassigned) [Example 346] | > 100 µM | – | > 100 µM | 650 nM | – | – | – | –
4 | Nc1nc2cc(-c3cc[nH]n3)ccc2c2[nH]c(CCNC(=O)C3CCCO3)cc12 (stereo not drawn) [Example 414] | – | – | – | – | > 100 µM | 2800 nM | > 100 µM | –
5 | CC(C)S(=O)(=O)NCCCn1cc2c(N)nc3cc(-c4ccn[nH]4)ccc3c2n1 [Example 588] | – | – | – | – | > 100 µM | 10900 nM | > 100 µM | –
6 | Nc1nc2cc(-c3cc[nH]n3)ccc2c2cn(CC(=O)N3CCCC3)nc12 [Example 528] | – | – | – | – | > 100 µM | 510 nM | > 100 µM | –
7 | N#CCCCCn1cc2c(N)nc3cc(-c4cc[nH]n4)ccc3c2n1 [Example 460] | – | – | – | – | > 100 µM | 200 nM | > 100 µM | –
8 | Cc1cc(Cn2cc3c(n2)c(N)nc2cc(-c4cc[nH]n4)ccc23)no1 [Example 173] | 1 to 20 µM | 210 nM | > 100 µM | – | – | – | – | –
9 | Cn1ccnc1C(=O)NCCn1cc2c(n1)c(N)nc1cc(-c3cc[nH]n3)ccc12 [Example 99] | > 100 µM | 460 nM | 20 to 100 µM | – | – | – | – | –
10 | C[C@H](O)Cn1cc2c(N)nc3cc(-c4cc[nH]n4)c(F)cc3c2n1 [Example 405] | – | – | – | – | > 100 µM | 690 nM | > 100 µM | –
11 | Nc1nc2cc(-c3cc[nH]n3)ccc2c2nn(C[C@H]3CCC(=O)N3)cc12 [Example 385] | > 100 µM | 2510 nM | > 100 µM | – | – | – | – | –
12 | Cc1nc(C(=O)NCCc2cc3c(N)nc4cc(-c5cc[nH]n5)ccc4c3[nH]2)cs1 [Example 495] | – | – | – | – | > 100 µM | 450 nM | > 100 µM | –
13 | CC(=O)NC(C)Cn1cc2c(N)nc3cc(-c4ccn[nH]4)ccc3c2n1 (single isomer, unassigned) [Example 299] | > 100 µM | – | > 100 µM | 2920 nM | – | – | – | –
14 | CC(CC(=O)N1CCOCC1)n1cc2c(N)nc3cc(-c4cc[nH]n4)ccc3c2n1 (stereo not drawn) [Example 616] | – | – | – | – | > 100 µM | 9560 nM | > 100 µM | –
15 | Nc1nc2cc(-c3cc[nH]n3)ccc2c2nn(CC(O)C(F)(F)F)cc12 (stereo not drawn) [Example 245] | > 100 µM | 940 nM | > 100 µM | – | – | – | – | –
16 | CNC(=O)CCn1cc2c(n1)c(N)nc1cc(-c3cc[nH]n3)ccc12 [Example 535] | – | – | – | – | > 100 µM | 960 nM | > 100 µM | –
17 | CC(C)C(O)Cn1cc2c(N)nc3cc(-c4cc[nH]n4)ccc3c2n1 (stereo not drawn) [Example 374] | > 100 µM | 650 nM | > 100 µM | – | – | – | – | –
18 | CCN(CC)CCCc1nc2c(N)nc3cc(-c4ccn[nH]4)ccc3c2s1 [Example 144, 2-[3-(diethylamino)propyl]-7-(1H-pyrazol-5-yl)-[1,3]thiazolo[4,5-c]quinolin-4-amine] | > 100 µM | 660 nM | > 100 µM | – | – | – | – | –
19 | CC(CC(=O)NCCCO)n1cc2c(N)nc3cc(-c4cc[nH]n4)ccc3c2n1 (stereo not drawn) [Example 619] | – | – | – | – | > 100 µM | 19700 nM | > 100 µM | –
20 | COC(C)Cn1cc2c(N)nc3cc(-c4cc[nH]n4)ccc3c2n1 (stereo not drawn) [Example 331] | > 100 µM | 80 nM | > 100 µM | – | – | – | – | –
21 | COCCNC(=O)C(C)n1cc2c(N)nc3cc(-c4ccn[nH]4)ccc3c2n1 (stereo not drawn) [Example 581] | – | – | – | – | > 100 µM | 3170 nM | > 100 µM | –
22 | CC(=O)N[C@H]1CCN(Cc2cc3c(N)nc4cc(-c5cc[nH]n5)ccc4c3[nH]2)C1 [Example 475] | – | – | – | – | > 100 µM | 1210 nM | > 100 µM | –
23 | CNC(=O)C(C)Cn1cc2c(N)nc3cc(-c4cc[nH]n4)ccc3c2n1 (stereo not drawn) [Example 612] | – | – | – | – | > 100 µM | 430 nM | > 100 µM | –
24 | CC[C@@H](O)Cn1ncc2c(N)nc3cc(-c4cc[nH]n4)ccc3c21 [Example 400] | – | – | – | – | > 100 µM | 1220 nM | > 100 µM | –
25 | CCNC(=O)Cn1cc2c(n1)c(N)nc1cc(-n3cccn3)ccc12 [Example 19] | 20 to 100 µM | 3880 nM | 20 to 100 µM | – | – | – | – | –
26 | Nc1nc2cc(-c3cc[nH]n3)ccc2c2nn(Cc3cccnn3)cc12 [Example 360] | > 100 µM | 110 nM | > 100 µM | – | – | – | – | –
27 | CCN(CCn1cc2c(N)nc3cc(-c4ccn[nH]4)ccc3c2n1)C(C)=O [Example 272] | > 100 µM | 5130 nM | > 100 µM | – | – | – | – | –
28 | Nc1nc2cc(-n3cccn3)ccc2c2cn(CCNC(=O)c3ccccc3)nc12 [Example 132, N-{2-[4-amino-7-(1H-pyrazol-1-yl)-2H-pyrazolo[3,4-c]quinolin-2-yl]ethyl}benzamide] | 20 to 100 µM | – | > 100 µM | – | – | – | – | 340 nM
